# “Also recorded” adds a separate entry of the source.
# B1: RSPO1: Wnt agonist R-spondin 1, supplied as 25% conditioned medium (protein, UniProt Q2MKA7 21-263, looked up)
# R-spondin-1: SRGIKGKRQRRISAEGSQACAKGCELCSEVNGCLKCSPKLFILLERNDIRQVGVCLPSCPPGYFDARNPDMNKCIKCKIEHCEACFSHNFCTKCKEGLYLHKGRCYPACPEGSSAANGTMECSSPAQCEMSEWSPWGPCSKKQQLCGFRRGSEERTRRVLHAPVGDHAACSDTKETRRCTVRRVPCPEGQKRRKGGQGRRENANRNLARKESKEAGAGSRRRKGQQQQQQQGTVGPLTSAGPA
# modifications: conditioned medium
# notes: Wnt agonist R-spondin 1, supplied as 25% conditioned medium
# How the values were obtained:
# [1] = tested on: human ectocervical organoids; assay: Human ectocervical organoid culture: formation, growth, differentiation; type: cell-based; conditions: for formation and expansion of squamous stratified organoids from single ectocervical stem cells: Wnt3a and RSPO1 together present in culture medium, human
# Protocol: The medium consisted of ADF, 12 mM HEPES and 1% GlutaMax, supplemented with 1% B27, 1% N2, 0.5 μg/ml hydrocortisone (Sigma, #H0888-1G), 10 ng/ml human EGF (Invitrogen, #PHG0311), 100 ng/ml human noggin (Peprotech; #120-10C), 100 ng/ml human FGF-10 (Peprotech, #100-26-25), 1.25 mM N-acetyl-L-cysteine, 10 mM nicotinamide, 2 μM TGF-β R kinase Inhibitor IV, 10 μM ROCK inhibitor (Y-27632), 10 μM forskolin (Sigma, F6886) and 1% penicillin/streptomycin.
# (§1) Cells isolated from tissue or the stem cells grown in 2D culture were mixed with 50 μl of ice cold Matrigel (BD, #356231) at a density of 20,000 cells, and the Matrigel droplet was placed in a pre-warmed 24-well plate and allowed to polymerize for 10 min at 37° C. The Matrigel droplet was then overlaid with 500 μl of pre-warmed human ecto- or endocervical medium. Cultures were kept at 37° C., 5% CO2 in a humidified incubator for 2-3 weeks and medium replaced every four days. For passaging the organoids, Matrigel was first dissolved by adding 1 ml of ice cold ADF and pipetting up and down 5 times. Organoids were collected in a 15 ml Falcon tube and a further 4 ml of ice cold ADF medium was added and organoids resuspended well to completely dissolve the Matrigel, followed by centrifugation at 300×g for 5 mins at 4° C. Medium was discarded and the ectocervical and mouse organoids were incubated with 1 ml of TrypLE Express for 30 min at 37° C. followed by mechanical fragmentation using a fire-polished glass Pasteur pipette by vigorous pipetting (8-10 times) to generate single cells. The single cells were then seeded at a 1:10 ratio back into Matrigel for expanding and culturing. Endocervical organoids were subjected to mechanical fragmentation as described above after centrifugation to generate fragments that were seeded back into Matrigel at 1:5 ratio. Matrigel was allowed to polymerize for 10 min at 37° C., overlaid with pre-warmed medium and cultured as described above.
# (§2) Stem cells were counted and a defined number resuspended in 50 μl of Matrigel to generate organoids as described above. Between 2-3 weeks after plating images were taken of the whole well and the number and area of organoids formed were determined using ImageJ to calculate organoid forming efficiency.
# Organoids were washed with cold PBS five times to remove Matrigel before fixing with 4% paraformaldehyde for 1 h at room temperature (RT) followed by washing with PBS twice. Organoids were then subjected to dehydration in an ascending ethanol series followed by isopropanol and acetone for 20 min each. The dehydrated organoids were paraffin embedded and 5 μm sections cut on a Microm HM 315 microtome. Mouse and human tissues were extensively washed with PBS and fixed using 4% PFA overnight at RT. Samples were subjected to dehydration in an ascending ethanol series followed by isopropanol and xylene (60 mins each) followed by paraffinization using a Leica TP1020 tissue processor. The tissue was embedded and 5 μm sections cut on a microtome. For immunostaining, paraffin sections were deparaffinized and rehydrated, followed by treatment with antigen retrieval solution (Dako, #S1699). Sections were blocked using blocking buffer (1% BSA and 2% FCS in PBS) for 1 h at RT. Primary antibodies were diluted in blocking buffer and incubated for 90 min at RT followed by five PSB washes before 1 h incubation with secondary antibodies diluted in blocking buffer along with Hoechst or Draq5. Sections were washed with PBS five times and mounted using Mowiol. […]
# [2] = tested on: mouse ectocervical organoids; assay: Mouse ectocervical organoid culture: formation and expansion; type: cell-based; conditions: for formation and expansion of squamous stratified organoids from single ectocervical stem cells: Wnt3a and RSPO1 together present in culture medium, mouse; for effect of presence or absence of Wnt pathway activators on murine organoid culture: murine ectocervical organoid medium
# Protocol: Cervical cells were cultured in ADF medium (Invitrogen, #12634) supplemented with 12 mM HEPES (Invitrogen, #15630-056), 1% GlutaMax (Invitrogen, #35050-038), 1% B27 (Invitrogen, #17504-044), 1% N2 (Invitrogen, #17502048), 50 ng/ml mouse epidermal growth factor (EGF) (Invitrogen, #PMG8043), 100 ng/ml mouse noggin (Peprotech, #250-38-100), 100 ng/ml human fibroblast growth factor (FGF)-10 (Peprotech, #100-26-25), 1.25 mM N-acetyl-L-cysteine (Sigma, #A9165-5G), 10 mM nicotinamide, (Sigma, #N0636), 2 μM TGF-β R Kinase Inhibitor IV (Calbiochem, #616454), 10 μM ROCK inhibitor (Y-27632) (Sigma, #Y0503), 1% penicillin/streptomycin (Gibco, #15140-122) with or without 25% Wnt3A- and 25% R-spondin1-conditioned medium, as described in Willert et al (46) and Farin et al (47).
# as §1, §2
Molecule,"organoid growth (area of organoids) ([1]; grown in presence of γ-secretase inhibitor (Notch inhibition), FIG. 3H, 11D)","proliferation of organoids (Ki67) ([1]; presence of γ-secretase inhibitor, FIG. 3I)","differentiation and stratification of organoids ([1]; presence of γ-secretase inhibitor, immunolabelling CDH1, Ki67, p63, FIG. 3I)",formation and expansion of squamous stratified organoids from single ectocervical stem cells [1],formation and expansion of squamous stratified organoids from single ectocervical stem cells [2],effect of presence or absence of Wnt pathway activators on murine organoid culture [2]
C[C@H](NC(=O)Cc1cc(F)cc(F)c1)C(=O)N[C@@H]1C(=O)N(C)c2ccccc2-c2ccccc21 [DBZ],reduced organoid growth,reduces proliferation,failed to differentiate and stratify; also recorded: prevents differentiation,,,
Wnt3a,,,,detrimental,detrimental,not to substantially effect
B1,,,,detrimental,detrimental,not to substantially effect

# From US20210355450A1, “CERVICAL CANCER ORGANOIDS” (Max-Planck-Gesellschaft zur Förderung der Wissenschaften …, priority 2018, published 2021)
